From the METLIN SMRT retention time set (Domingo-Almenara et al. 2019) come the findings set out here.

SMILES strings stand for the structures.

The data set is described as follows: gradient 5% acetonitrile 3 min, to 50% in 2 min, to 85% in 15 min, held 3 min, 100 µL/min. Conditions: column: Zorbax Extend-C18 2.1 x 50 mm; eluents: water / acetonitrile, 0.1% formic acid. The essentials:
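A Zorbax Extend-C18 column (2.1 × 50 mm, 1.8 μm) run at 100 μL/min with water and acetonitrile, both containing 0.1% formic acid, separated mixtures of ~100 pure standards. The HPLC was coupled to a quadrupole time-of-flight mass spectrometer operated in positive and negative ionization mode, with dead and dwell volumes of 40 μL and 900 μL. Each retention time was taken from a computationally picked adduct peak that was then manually inspected.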
`Cc1nc(-c2csc(S(=O)(=O)N3CCC(C(=O)NC4CCCC4)CC3)c2)no1` returned an RP-LC retention time of 826 s.

In turn, `CCc1nnc(-c2ccc(S(=O)(=O)N3CCN(C4CCCCC4)CC3)o2)o1` came in with an RP-LC retention time of 637 s.

In the case of `CCN(CC)c1nc2cc(C(=O)N3CCN(c4ccccn4)CC3)ccc2c(=O)n1-c1ccccc1`, the RP-LC retention time came out at 693 s.

In turn, `CCCn1cc(C(=O)NCC(=O)OCC)c(S(=O)(=O)N2CCN(c3ccc(Cl)cc3)CC2)n1` yielded an RP-LC retention time of 1040 s.

The compound `Cc1noc(C)c1CCC(=O)N(C)C1CCc2nn(CC3CC3)c(=O)n2CC1` (stereo not given) had an RP-LC retention time of 644 s.

On to `Cc1oc(-c2ccccc2)nc1Cc1noc(Cc2c[nH]c3ccccc23)n1`, for which the RP-LC retention time is 1010 s.

The compound `COc1cccc(-c2ccc(=O)n(CCCC(=O)Nc3cccc4nsnc34)n2)c1` registered an RP-LC retention time of 764 s.

`COc1ccc(NC(=O)Nc2ccc3c(c2)CCN3S(=O)(=O)c2ccc(C)cc2)cc1` showed an RP-LC retention time of 953 s.

For the compound `COCC(=O)Nc1cnc(-c2cccnc2)nc1`, the RP-LC retention time is 554 s.

Take `CCSc1ccccc1C(=O)Nc1ccc(-c2nc(C)no2)cc1`: the RP-LC retention time amounted to 878 s.

Consider `CCCn1cc(-c2ccncc2)cc1C(=O)NCc1ccccc1C`, for which the RP-LC retention time turned out to be 689 s.

Take `c1cncc(-c2nc3ccccc3s2)c1`: the RP-LC retention time came to 873 s.

On to `O=C(CCc1nc(CSc2nnc(-c3ccccc3)o2)no1)Nc1ccccc1`, for which the RP-LC retention time was determined as 863 s.

`CC(C)Cn1cc(S(=O)(=O)NCc2cccc(C(F)(F)F)c2)c2cccnc21` had an RP-LC retention time of 1070 s.

Turning to `Cc1[nH]c(C(=O)Nc2cccc(Br)c2)c(C)c1S(=O)(=O)N1CCCC1`, the RP-LC retention time was 971 s.

Turning to `O=C(CSc1ccc(F)cc1)NCC1CCN(Cc2cccs2)CC1`, the RP-LC retention time amounted to 566 s.

The compound `Cc1ccc(N2CCN(C(=O)c3ccc4ncnc(N5CCCC5)c4c3)CC2)cc1` yielded an RP-LC retention time of 668 s.

Take `Nc1nc(N2CCOCC2)ncc1C(=O)Nc1ccccc1`: the RP-LC retention time worked out at 611 s.

Compound `CCC1CCCCN1CCCNC(=O)c1cc(S(=O)(=O)N2CCCC2)ccc1Cl` (stereo not given) registered an RP-LC retention time of 661 s.

On to `CC(=O)N1CCc2cc(S(=O)(=O)NCCn3nc(-c4cccs4)ccc3=O)ccc21`, for which the RP-LC retention time turned out to be 650 s.

Regarding `Cc1cc(Cl)ccc1NS(=O)(=O)c1cc(-c2[nH]ncc2C(=O)N(C)C)oc1C`, the RP-LC retention time stood at 730 s.

`Cn1nccc1C(=O)NC1CCCN(c2cc(N3CCCC3)ncn2)C1` (stereo not given) had an RP-LC retention time of 590 s.

Take `CCC(C)C(NC(=O)c1ccc2c(c1)OCO2)C(=O)Nc1nc2ccccc2[nH]1` (stereo not given): the RP-LC retention time is 718 s.

In the case of `Cc1c(-c2nnc(C3CC3)o2)c(S(=O)(=O)N2CCN(C(C)C)CC2)c(C)n1C`, the RP-LC retention time is 610 s.

The compound `COCC(C)NC(=O)c1cc2c(s1)N(CC(C)C)CCCC2` (stereo not given) returned an RP-LC retention time of 1080 s.

Consider `CC(=O)N1CCc2ccccc2C1C(=O)NC1CCCCCC1` (stereo not given), for which the RP-LC retention time came to 831 s.

The compound `CCOC(=O)c1noc2ncnc(NCCc3ccccc3)c12` returned an RP-LC retention time of 936 s.

`COc1ccc(OC)c(NC(=O)Cc2csc3nc(-c4ccc(C)c(C)c4)cn23)c1`: the RP-LC retention time was determined as 772 s.

Compound `CC(=O)Nc1ccc(NC(=O)Cn2cccc(-c3nc(-c4ccccc4)no3)c2=O)cc1` yielded an RP-LC retention time of 694 s.

Compound `CCc1ccc(-c2cn3ccn(-c4ccc(F)cc4)c(=O)c3n2)cc1` yielded an RP-LC retention time of 900 s.

`O=C(C1=CN(c2ccc(F)c(Cl)c2)c2cc(F)ccc2S1(=O)=O)N1CCOCC1` registered an RP-LC retention time of 775 s.

The compound `Cc1noc(C)c1S(=O)(=O)N1CCc2nn(Cc3ccccc3)c(=O)n2CC1` had an RP-LC retention time of 776 s.

Compound `CCCN1CCN(C(=O)c2ccc3ccnc(N4CCN(c5ccc(Cl)cc5)CC4)c3c2)CC1` yielded an RP-LC retention time of 643 s.

Turning to `COC(=O)C(C)n1nc2nc(Nc3cc(C)cc(C)c3)cc(C)n2c1=O` (stereo not given), the RP-LC retention time was 1160 s.

Compound `O=C(Cc1ccccc1F)N1CCCn2nc(-c3cccs3)cc2C1` gave an RP-LC retention time of 875 s.

For the compound `CCN1c2ccc(C)cc2C(=O)NC12CCN(C(=O)c1ccc(Br)cc1)CC2`, the RP-LC retention time worked out at 902 s.

In turn, `COc1ccc(CN(CCC2(C(C)C)CCOC(C)(C)C2)C(C)=O)cc1OC` (stereo not given) returned an RP-LC retention time of 864 s.

Compound `CCc1nnc(-c2ccc(NS(=O)(=O)c3cccc(OC)c3)cc2)o1` gave an RP-LC retention time of 801 s.

In turn, `Cn1cc(-c2nc(C(=O)Nc3ccc(F)cc3)cs2)c2cccnc21` displayed an RP-LC retention time of 973 s.

Turning to `CCCCN(C)C(=O)Cn1nc2c3cc(-c4cc(C)ccc4C)nn3ccn2c1=O`, the RP-LC retention time turned out to be 973 s.

`Cc1ccc(-c2nc3ncccn3c2NCc2ccccc2)cc1C`: the RP-LC retention time amounted to 785 s.

Compound `O=C(NCCCN1CCc2ccccc2C1)C1CCCN(c2nnc(-n3cccc3)s2)C1` (stereo not given) gave an RP-LC retention time of 593 s.

Regarding `CCS(=O)(=O)c1nc2ccc(NS(C)(=O)=O)cc2s1`, the RP-LC retention time is 699 s.

Take `CCCN(C)c1nccn2c(=O)n(CC(=O)Nc3ccc(C)c(F)c3)nc12`: the RP-LC retention time was 726 s.

Turning to `Cc1ccc(C)c(C(=O)N2C[C@H](c3nc(-c4cccnc4)no3)[C@@H](C)C2)c1`, the RP-LC retention time came out at 836 s.

On to `O=C(Nc1cccnc1)C1(CCO)CCN(c2ncccn2)C1` (stereo not given), for which the RP-LC retention time came out at 529 s.

Regarding `COc1cccc(-c2nc(-c3ccc4c(c3)nnn4CCN(C)C)no2)c1`, the RP-LC retention time was 595 s.

Turning to `CSc1cccc(NC(=O)N2CCc3nc(CNC(=O)C4CCC4)n(C)c3C2)c1`, the RP-LC retention time is 632 s.

On to `O=C1COc2ccccc2N1Cc1nc(-c2ccc3c(c2)OCO3)no1`, for which the RP-LC retention time was found to be 934 s.

`CCOCCn1c(=O)c2c(nc3n2CC(C)CN3c2ccc(OC)cc2)n(C)c1=O` (stereo not given) registered an RP-LC retention time of 853 s.

In turn, `O=C(NC1CC1)c1ccccc1OCC1CCCN(Cc2cc3ccccc3nc2Cl)C1` (stereo not given) gave an RP-LC retention time of 650 s.

With `CCc1ccccc1S(=O)(=O)N1CCC(n2cnnc2CC)CC1`, the RP-LC retention time came to 595 s.

Regarding `COc1ccc(-c2csc(Nc3ccc(S(=O)(=O)Nc4nc(C)cc(C)n4)cc3)n2)cc1C`, the RP-LC retention time is 966 s.

As to `COc1ccc(NC(=O)Cn2nc(C(=O)N3CCCC3)c3ccccc32)c(OC)c1`, the RP-LC retention time stood at 822 s.

In the case of `COC(=O)c1cccc(Nc2c(-c3ccc(OC)cc3)nc3cnccn23)c1`, the RP-LC retention time was determined as 810 s.

As for `CNC(=O)c1cc(C)nc2ccc(C)cc12`, the RP-LC retention time was found to be 561 s.

`Cc1oc(C2CCN(C(=O)CCc3cc(Cl)no3)CC2)nc1C(=O)N1CCOCC1`: the RP-LC retention time worked out at 684 s.

In the case of `O=C(O)c1cn(-c2cccc(Br)c2)nn1`, the RP-LC retention time amounted to 723 s.

As for `CNC(=O)c1cc(N2CCOCC2)nc2c(C)cccc12`, the RP-LC retention time was 704 s.

`O=C(NC1CCCC1)c1ccc2ncnc(N3CCCCC3)c2c1` returned an RP-LC retention time of 640 s.

In the case of `COc1ccc(-c2nc(C3CC(=O)N(c4ccc(C)cc4)C3)no2)cn1` (stereo not given), the RP-LC retention time came to 946 s.

Regarding `CCOC(=O)c1c(C)[nH]c(C(=O)N2CCCC(C(=O)NCCC(C)C)C2)c1C` (stereo not given), the RP-LC retention time came out at 798 s.

Consider `CCOC(=O)CCC(=O)NCC1CN(c2ccc(F)cc2)C(=O)O1` (stereo not given), for which the RP-LC retention time amounted to 666 s.

Compound `COCCN1C(=O)CCc2cc(NS(=O)(=O)c3ccc4c(c3)CCC4)ccc21` yielded an RP-LC retention time of 854 s.

`CC12C=CC(O1)C1C(=O)N(c3ccc(N4CCOCC4)cc3)C(=O)C12` (stereo not given) yielded an RP-LC retention time of 662 s.

In the case of `O=C(Cc1ccsc1)Nc1ccc(-c2nnc3n2CCCC3)cc1`, the RP-LC retention time stood at 648 s.

With `O=C(Cn1c(=O)oc2ccccc21)Nc1nc(-c2ccccc2)cs1`, the RP-LC retention time was 912 s.

For the compound `O=C(NCc1ccco1)C1CC(=O)N(c2ccc3c(c2)CCN3C(=O)C2CCC2)C1` (stereo not given), the RP-LC retention time was 734 s.

For the compound `COC(=O)c1ccc(NC(=O)c2sc(-c3cn(C)c4ncccc34)nc2C)cc1`, the RP-LC retention time is 1080 s.

Compound `CCN1C(=O)C2CC3(CCN(C(=O)CN4CCCC4=O)CC3)CN2C1=O` (stereo not given) returned an RP-LC retention time of 600 s.

`O=C(Cn1cccc(-c2nc(-c3ccc(Br)cc3)no2)c1=O)Nc1ccc(F)cc1F`: the RP-LC retention time turned out to be 990 s.

`CCOC(=O)C1CCN(C(=O)CCC(=O)N2CCCn3nc(-c4cn(C)c5ccccc45)cc32)CC1` gave an RP-LC retention time of 798 s.

For `O=c1n(Cc2ccc(Cl)cc2)nc2ccc(S(=O)(=O)N3CCCCCC3)cn12`, the RP-LC retention time turned out to be 1020 s.

As to `CCN1CCN(CCCNC(=O)c2sc3ncccc3c2-n2c(C)ccc2C)CC1`, the RP-LC retention time worked out at 607 s.

For `O=C(c1cn2ccccc2n1)N1CCN(c2ccc(Cl)cc2)CC1`, the RP-LC retention time was 709 s.

As for `CCOCCCNC(=O)c1cc2c(n(-c3ccc(C(C)C)cc3)c1=O)CCCC2=O`, the RP-LC retention time worked out at 952 s.

`O=C(NCCC1=CCCCC1)C1CCN(C(=O)c2ncn3c2COC(c2ccc(Cl)cc2)C3)CC1` (stereo not given) registered an RP-LC retention time of 911 s.

For the compound `Cc1sc(-c2nc(C(C)C)cs2)cc1S(=O)(=O)NCc1cccs1`, the RP-LC retention time worked out at 1150 s.

Turning to `CCNC(=O)N(C)Cc1ccc(C)s1`, the RP-LC retention time was 722 s.

Compound `O=C(Cn1ccn2nc(-c3ccc(F)cc3)c(CO)c2c1=O)Nc1ccc(F)c(F)c1` registered an RP-LC retention time of 865 s.
